Test results as given in US5021438A, “1,3,4,5-tetrahydrobenz(c,d)indoles” (Bayer Aktiengesellschaft, priority 1988, dated 1991).
Structures can show the parent of a compound that is named as a salt.

Columns and labels:
5-HT1 receptor = experiment: Affinity for the 5-HT1 receptor (receptor binding, 3H-serotonin radioligand, calf hippocampus membranes); details: calf hippocampus membrane preparations; 3H-Serotonin as radioligand
Source text: Affinity for the 5-HT1 receptor
The high affinity of the compounds according to the invention for 5-hydroxytryptamine receptors of the subtype 1 is represented by way of example in Table 1. The values indicated are data which have been determined from receptor binding studies with calf hippocampus membrane preparations. 3H-Serotonin was used for this as a radioactively labelled ligand.

[1] = test system: "behavioral despair" behavior; experiment: "behavioral despair" behavior according to Porsolt et al.; format: in vivo; details: according to Porsolt et al. 1977
Source text: Furthermore, the antidepressive action properties of the compounds were investigated. For this, the influence of the compounds on the so-called "behavioral despair" behavior was investigated according to Porsolt et al. Arch. Int. Pharmacodyn. Ther. 229, 327 (1977).

| SMILES | Ki (5-HT1 receptor) | influence on "behavioral despair" behavior (antidepressive action) [1] |
| --- | --- | --- |
| COc1ccc2[nH]cc3c2c1CC(NCCCCN1C(=O)c2ccccc2S1(=O)=O)C3 (stereo not drawn) [Example 1, 6-Methoxy-4-[4-(N-1,2-benzisothiazol-3(2H)-one-1,1-dioxide-yl)]-butylamino-1,3,4,5-tetrahydrobenz[c,d]indole hydrochloride] | 2 nM | – |
| O=C1c2ccccc2S(=O)(=O)N1CCCCNC1Cc2cccc3[nH]cc(c23)C1 (stereo not drawn) [Example 2, 4-[4-(N-1,2-Benzisothiazol-3(2H)-one-1,1-dioxide-yl)]-butylamino-1,3,4,5-tetrahydrobenz[c,d]indole] | 2 nM | – |
| COc1ccc2[nH]cc3c2c1CC(NCCCCN1Cc2ccccc2S1(=O)=O)C3 (stereo not drawn) [Example 3, 6-Methoxy-4-[4-(N-2,3-dihydro-1,2-benzisothiazol-1,1-dioxid-yl)]-butylamino-1,3,4,5-tetrahydrobenz[c,d]indole hydrochloride] | – | positive action |
| COc1ccc2[nH]cc3c2c1CC(NCCCCN(C)S(=O)(=O)c1ccc(F)cc1)C3 (stereo not drawn) [Example 4, 6-Methoxy-4-[4-(N-4-fluorobenzenesulfonyl-N-methyl)amidobutyl]-amino-1,3,4,5-tetrahydrobenz[c,d]indole hydrochloride] | – | positive action |
| CCCN(CCNC(=O)OCC)C1Cc2c[nH]c3ccc(OC)c(c23)C1 (stereo not drawn) [Example 5, 6-Methoxy-4-[N-propyl-N-(ethyloxycarbonylaminoethyl)]amino-1,3,4,5-tetrahydrobenz[c,d]indole] | 1 nM | – |
| CCCN(CCNS(C)(=O)=O)C1Cc2c[nH]c3ccc(OC)c(c23)C1 (stereo not drawn) [Example 6, 6-Methoxy-4-[N-propyl-N-(methylsulphonylamidoethyl)]-amino-1,3,4,5-tetrahydrobenz[c,d]indole] | 6 nM | – |
| CCCCS(=O)(=O)NCCN(CCC)C1Cc2c[nH]c3ccc(OC)c(c23)C1 (stereo not drawn) [Example 7] | – | positive action |
| CCCN(CCNS(=O)(=O)c1ccc(C)cc1)C1Cc2c[nH]c3ccc(OC)c(c23)C1 (stereo not drawn) [Example 8, 6-Methoxy-4-[N-propyl-N-(tosylamidoethyl)]-amino-1,3,4,5-tetrahydrobenz[c,d]indole hydrochloride] | 1 nM | – |
| CCCN(CCNS(=O)(=O)c1ccc2ccccc2c1)C1Cc2c[nH]c3ccc(OC)c(c23)C1 (stereo not drawn) [Example 9, 6-Methoxy-4-[N-propyl-N-(naphthylsulphonylamidoethyl)]-amino-1,3,4,5-tetrahydrobenz[c,d]indole hydrochloride] | 2 nM | – |
| CCCNC1Cc2c[nH]c3ccc(OC)c(c23)C1 (stereo not drawn) [Example 13, 6-Methoxy-4-propylamino-1,3,4,5-tetrahydrobenz[c,d]indole] | – | positive action |
| CCCN(CCS(=O)(=O)N(C)C)C1Cc2c[nH]c3ccc(OC)c(c23)C1 (stereo not drawn) [Example 15, 6-Methoxy-4-[N-propyl-N-(dimethylsulphamoylethyl)]-amino-1,3,4,5-tetrahydrobenz[c,d]indole] | 8 nM | – |
| COc1ccc2[nH]cc3c2c1CC(NCCCNS(=O)(=O)c1ccc(F)cc1)C3 (stereo not drawn) [Example 18, 6-Methoxy-4-(4-fluorophenylsulphonylamidopropyl)-amino-1,3,4,5-tetrahydrobenz[c,d]indole hydrochloride] | 0.7 nM | – |
